# Assay results taken from patent US5834461A, “Tricyclic benzazepine vasopressin antagonists” (American Cyanamid Company, priority 1997, dated 1998).
# Molecular target: T1, human V2 vasopressin receptor (Homo sapiens, UniProt P30518)
# T1 construct: expressed in transfected cells; host or cells: mouse fibroblast cell line LV-2
# Assay: Binding to Membranes of Mouse Fibroblast Cell Line (LV-2) Transfected with the cDNA Expressing the Human V2 Vasopressin Receptor
# Conditions: LV-2 cells
# Experimental: Flasks of 175 ml capacity, containing attached cells grown to confluence, are cleared of culture medium by aspiration. The flasks containing the attached cells are rinsed with 2×5 ml of phosphate buffered saline (PBS) and the liquid aspirated off each time. Finally, 5 ml of an enzyme free dissociation Hank's based solution (Specialty Media, Inc., Lafayette, N.J.) is added and the flasks are left undisturbed for 2 min. The content of all flasks is poured into a centrifuge tube and the cells pelleted at 300×g for 15 min. The Hank's based solution is aspirated off and the cells homogenized with a polytron at setting #6 for 10 sec in 10.0 mM Tris.HCl buffer, pH 7.4 containing 0.25M sucrose and 1.0 mM EDTA. The homogenate is centrifuged at 1500×g for 10 min to remove ghost membranes. The supernatant fluid is centrifuged at 100,000×g for 60 min to pellet the receptor protein. Upon completion, the pellet is resuspended in a small volume of 50.0 mM Tris.HCl buffer, pH 7.4. The protein content is determined by the Lowry method and the receptor membranes are suspended in 50.0 mM Tris.HCl buffer containing 0.1 mM phenylmethylsulfonylfluoride (PMSF) and 0.2% bovine serum albumin (BSA) to give 2.5 mg receptor protein per ml of suspension.
# For binding experiments, the following is added in μl volume to wells of a 96 well format of a microtiter plate: 100.0 μl of 100.0 mM Tris.HCl buffer containing 0.2% heat inactivated BSA, 10.0 mM MgCl2 and a mixture of protease inhibitors: leupeptin, 1.0 mg %; aprotinin, 1.0 mg %; 1,10-phenanthroline, 2.0 mg %; trypsin inhibitor, 10.0 mg % and 0.1 mM PMSF., 20.0 μl of [^3 H] Arginine^8, vasopressin (S.A. 75.0 Ci/mmole) at 0.8 nM and the reaction initiated by the addition of 80.0 μl of tissue membranes ([…]).
# The plates are left undisturbed on the bench top for 120 min to reach equilibrium. Non specific binding is assessed in the presence of 1.0 μM of unlabeled ligand, added in 20 μl volume. For test compounds, these are solubilized in 50% dimethylsulfoxide (DMSO) and added in 20.0 μl volume to a final incubation volume of 200 μl. Upon completion of binding, the content of each well is filtered off, using a Brandel® cell Harvester (Gaithersburg, Md.). The radioactivity trapped on the filter disk by the ligand-receptor complex is assessed by liquid scintillation counting in a Packard LS Counter, with an efficiency of 65% for tritium.
# T1 sequence (P30518 whole entry): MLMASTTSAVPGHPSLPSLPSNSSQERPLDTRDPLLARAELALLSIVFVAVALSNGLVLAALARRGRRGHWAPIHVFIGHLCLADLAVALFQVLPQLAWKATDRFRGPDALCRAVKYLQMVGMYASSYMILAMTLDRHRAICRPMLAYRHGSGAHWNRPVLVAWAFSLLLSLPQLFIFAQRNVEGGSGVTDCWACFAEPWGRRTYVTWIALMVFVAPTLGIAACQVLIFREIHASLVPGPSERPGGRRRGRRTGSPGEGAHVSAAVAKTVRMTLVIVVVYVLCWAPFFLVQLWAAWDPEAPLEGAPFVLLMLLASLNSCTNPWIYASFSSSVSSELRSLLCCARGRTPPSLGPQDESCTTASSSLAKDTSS
row,Structure (SMILES),IC50
1,Cc1nc2c(s1)CCN(C(=O)c1ccc(NC(=O)c3cc(F)ccc3C)cc1)c1ccccc1-2 [Example 534],73 nM
2,"COc1cc(C(=O)N2Cc3ccccc3Cc3ccccc32)ccc1NC(=O)c1ccc(Cl)cc1Cl [Example 263, N-[4-[(6,11-Dihydro-5H-dibenz[b,e]azepin-5-yl)-carbonyl]-2-methoxyphenyl]-2,4-dichlorobenzamide]",47 nM
3,"COc1cc(C(=O)N2Cc3ccccc3Cc3ccccc32)ccc1NC(=O)c1cc(F)ccc1C [Example 261, N-[4-[(6,11-Dihydro-5H-dibenz[b,e]azepin-5-yl)-carbonyl]-2-methoxyphenyl]-2-methyl-5-fluorobenzamide]",16 nM
4,"Cc1c(F)cccc1C(=O)Nc1ccc(C(=O)N2Cc3ccccc3Cc3ccccc32)cc1Cl [Example 262, N-[4-[(6,11-Dihydro-5H-dibenz[b,e]azepin-5-yl)-carbonyl]-2-chlorophenyl]-2-methyl-3-fluorobenzamide]",250 nM
5,"Cc1nc2c(s1)CCN(C(=O)c1ccc(NC(=O)c3ccc(Cl)cc3Cl)cc1)c1ccccc1-2 [Example 455, N-[4-(4,5-Dihydro-2-methyl-6H-thiazolo[5,4-d][1]-benzazepin-6-yl)carbonyl1phenyl]-2,4-dichlorobenzamide]",100 nM
6,Cc1ccc(F)cc1C(=O)Nc1ccc(C(=O)N2CCc3c[nH]nc3-c3ccccc32)c(Cl)c1 [Example 581],2.2 nM
7,"COc1cc(C(=O)N2Cc3ccccc3Cc3ccccc32)ccc1NC(=O)c1ccccc1C [Example 257, N-[4-[(6,11-Dihydro-5H-dibenz[b,e]azepin-5-yl)-carbonyl]-2-methoxyphenyl]-2-methylbenzamide]",20 nM
